Experimental data taken from patent publication US8987195B2 (priority 2012, dated 2015).
Read-outs that look alike come from different tables or passages of the source.

System: HCV genotype 1b replicon
Assay: HCV replicon assay, genotype 1b replicon EC50
Type: cell-based, Hepatitis C virus
Settings: genotype 1b replicon, read-out: EC50 [gt-1b]
Description: Measuring Compound Inhibitory Potency (Genotype 1b Replicon EC50 (nM))
Measurement of inhibition by compounds was performed using the HCV replicon system. Several different replicons encoding different HCV genotypes or mutations were used. In addition, potency measurements were made using different formats of the replicon assay, including different ways of measurements and different plating formats. See Jan M. Vrolijk et al., A replicons-based bioassay for the measurement of interferons in patients with chronic hepatitis C, 110 J. VIROLOGICAL METHODS 201 (2003); Steven S. Carroll et al., Inhibition of Hepatitis C Virus RNA Replication by 2′-Modified Nucleoside Analogs, 278(14) J. BIOLOGICAL CHEMISTRY 11979 (2003). However, the underlying principles are common to all of these determinations, and are outlined below.
Stable neomycin phosphotransferase encoding replicon-harboring cell lines were used, so all cell lines were maintained under G418 selection prior to the assay. In some cases the cell lines encoded a luciferase:Neo^r fusion and could be assayed either directly by determination of RNA copy number, or indirectly through measurement of the luciferase activity.
To initiate an assay, replicon cells were plated in the presence of a dilution series of test compound in the absence of G418. Typically, the assays were performed in a 96-well plate format for manual operation, or a 384 well plate in an automated assay. Replicon cells and compound were incubated for 24-48 hours, depending on the assay. At the end of the assay, cells are washed free of media and compound and then lysed. For direct quantitation, RNA levels were measured by ^32P-probe hybridization and protection, or in a TAQMAN based assay and normalized to cellular cyclophilin A RNA levels. In some cases, luciferase activity was measured using a conventional luciferase assay. In all cases EC50 determinations were calculated as a percent of a DMSO control by fitting the data to a four parameter fit function.

Structure (SMILES): CC(C)(C)OC(=O)N[C@H]1CCCCC/C=C\[C@@H]2C[C@@]2(C(=O)NS(=O)(=O)C2(C)CC2)NC(=O)[C@@H]2C[C@]3(CCc4c(c(-c5cccc(F)c5)nc5ccccc45)O3)CN2C1=O [Example 13, tert-Butyl (2R,6S,13aS,14aR,16aS,Z)-5′-(3-fluorophenyl)-14a-(1-methylcyclopropylsulfonylcarbamoyl)-5,16-dioxo-1′,2′,3,5,6,7,8,9,10,11,13a,14,14a,15,16,16a-hexadecahydro-1H-spiro[cyclopropa[e]pyrrolo[1,2-a][1,4]diazacyclopentadecine-2,3′-pyrano[2,3-c]quinoline-]-6-ylcarbamate]
- EC50 (Hepatitis C virus): 4.23 nM

Structure (SMILES): CC(C)(C)OC(=O)N[C@H]1CCCCC/C=C\[C@@H]2C[C@@]2(C(=O)NS(=O)(=O)C2(C)CC2)NC(=O)[C@@H]2C[C@@]3(CCc4c(c(-c5cccc(F)c5)nc5ccccc45)O3)CN2C1=O [Example 14, tert-Butyl (2S,6S,13aS,14aR,16aS,Z)-5′-(3-fluorophenyl)-14a-(1-methylcyclopropylsulfonylcarbamoyl)-5,16-dioxo-1′,2′,3,5,6,7,8,9,10,11,13a,14,14a,15,16,16a-hexadecahydro-1H-spiro[cyclopropa[e]pyrrolo[1,2-a][1,4]diazacyclopentadecine-2,3′-pyrano[2,3-c]quinoline]-6-ylcarbamate]
- EC50 (Hepatitis C virus): 6.5 nM

Structure (SMILES): CC(C)(C)OC(=O)N[C@H]1CCCCC/C=C\[C@@H]2C[C@@]2(C(=O)NS(=O)(=O)C2CC2)NC(=O)[C@@H]2C[C@]3(CCc4c(c(-c5cccc(F)c5)nc5ccccc45)O3)CN2C1=O [Example 15, tert-Butyl (2R,6S,13aS,14aR,16aS,Z)-14a-(cyclopropylsulfonylcarbamoyl)-5′-(3-fluorophenyl)-5,16-dioxo-1′,2′,3,5,6,7,8,9,10,11,13a,14,14a,15,16,16a-hexadecahydro-1H -spiro[cyclopropa[e]pyrrolo[1,2-a][1,4]diazacyclopentadecine-2,3′-pyrano[2,3-c]quinoline]-6-ylcarbamate]
- EC50 (Hepatitis C virus): 9.36 nM

Structure (SMILES): CC(C)(C)OC(=O)N[C@H]1CCCCC/C=C\C2CC2(C(=O)NS(=O)(=O)C2(C)CC2)NC(=O)C2C[C@]3(CCc4c(c(C5CC5)nc5ccccc45)O3)CN2C1=O (stereo partly drawn) [Example 18, tert-Butyl (2R,6S,13aS,14aR,16aS,Z)-5′-cyclopropyl-14a-(1-methylcyclopropylsulfonylcarbamoyl)-5,16-dioxo-1′,2′,3,5,6,7,8,9,10,11,13a,14,14a,15,16,16a-hexadecahydro-1H-spiro[cyclopropa[e]pyrrolo[1,2-a][1,4]diazacyclopentadecine-2,3′-pyrano[2,3-c]quinoline-]-6-ylcarbamate]
- EC50 (Hepatitis C virus): 0.77 nM

Structure (SMILES): CC(C)COC(=O)N[C@H]1CCCCC/C=C\[C@@H]2C[C@@]2(C(=O)NS(=O)(=O)C2(C)CC2)NC(=O)[C@@H]2C[C@]3(CCc4c(c(-c5cccc(F)c5)nc5ccccc45)O3)CN2C1=O [Example 21, Isobutyl (2R,6S,13aS,14aR,16aS,Z)-5′-(3-fluorophenyl)-14a-(1-methylcyclopropylsulfonylcarbamoyl)-5,16-dioxo-1′,2′,3,5,6,7,8,9,10,11,13a,14,14a,15,16,16a-hexadecahydro-1H-spiro[cyclopropa[e]pyrrolo[1,2-a][1,4]diazacyclopentadecine-2,3′-pyrano[2,3-c]quinoline]-6-ylcarbamate]
- EC50 (Hepatitis C virus): 0.81 nM

Structure (SMILES): CC1(OC(=O)N[C@H]2CCCCC/C=C\[C@@H]3C[C@@]3(C(=O)NS(=O)(=O)C3(C)CC3)NC(=O)[C@@H]3C[C@]4(CCc5c(c(-c6cccc(F)c6)nc6ccccc56)O4)CN3C2=O)CC1 [Example 22, 1-Methylcyclopropyl (2R,6S,13aS,14aR,16aS,Z)-5′-(3-fluorophenyl)-14a-(1-methylcyclopropylsulfonylcarbamoyl)-5,16-dioxo-1′,2′,3,5,6,7,8,9,10,11,13a,14,14a,15,16, 16a-hexadecahydro-1H-spiro[cyclopropa[e]pyrrolo[1,2-a][1,4]diazacyclopentadecine-2,3′-pyrano[2,3-c]quinoline]-6-ylcarbamate]
- EC50 (Hepatitis C virus): 4.14 nM

Structure (SMILES): CC(C)(C)NC(=O)N[C@H]1CCCCC/C=C\[C@@H]2C[C@@]2(C(=O)NS(=O)(=O)C2(C)CC2)NC(=O)[C@@H]2C[C@]3(CCc4c(c(-c5cccc(F)c5)nc5ccccc45)O3)CN2C1=O [Example 23, (2R,6S,13aS,14aR,16aS,Z)-6-(3-tert-Butylureido)-5′-(3-fluorophenyl)-N-(1-methylcyclopropylsulfonyl)-5,16-dioxo-1′,2′,3,5,6,7,8,9,10,11,13a,14,14a,15,16,16a-hexadecahydro-1H-spiro[cyclopropa[e]pyrrolo[1,2-a][1,4]diazacyclopentadecine-2,3′-pyrano[2,3-c]quinoline]-14a-carboxamide]
- EC50 (Hepatitis C virus): 9.13 nM

Structure (SMILES): CC1(S(=O)(=O)NC(=O)[C@@]23C[C@H]2/C=C\CCCCC[C@H](NC(=O)CC(F)(F)F)C(=O)N2C[C@@]4(CCc5c(c(-c6cccc(F)c6)nc6ccccc56)O4)C[C@H]2C(=O)N3)CC1 [Example 24, (2R,6S,13aS,14aR,16aS,Z)-5′-(3-Fluorophenyl)-N-(1-methylcyclopropylsulfonyl)-5,16-dioxo-6-(3,3,3-trifluoropropanamido)-1′,2′,3,5,6,7,8,9,10,11,13a,14,14a,15,16, 16a-hexadecahydro-1H-spiro[cyclopropa[e]pyrrolo[1,2-a][1,4]diazacyclopentadecine-2,3′-pyrano[2,3-c]quinoline]-14a-carboxamide]
- EC50 (Hepatitis C virus): 5.92 nM

Structure (SMILES): COc1ccc2nc(C(F)(F)F)c3c(c2c1)[C@H](OC(=O)NS(=O)(=O)C1(C)CC1)C[C@]1(C[C@H]2C(=O)N[C@]4(C(=O)NS(=O)(=O)C5(C)CC5)C[C@H]4/C=C\CCCCC[C@H](NC(=O)OC(C)(C)C)C(=O)N2C1)O3 [Example 52, tert-Butyl ((1′R,2S,6S,13aS,14aR,16aS,Z)-9′-methoxy-14a-(((1-methylcyclopropyl)sulfonyl)carbamoyl)-1′-((((1-methylcyclopropyl)sulfonyl)carbamoyl)oxy)-5,16-dioxo-5′-(trifluoromethyl)-1′,2′,3,5,6,7,8,9,10,11,13a,14,14a,15,16,16a-hexadecahydro-1H-spiro[cyclopropa[e]pyrrolo[1,2-a][1,4]diazacyclopentadecine-2,3′-pyrano[2,3-c]quinolin]-6-yl)carbamate]
- EC50: 1.77 nM

Structure (SMILES): COc1ccc2nc(C(F)(F)F)c3c(c2c1)[C@H](OC(=O)NS(=O)(=O)C1(C)CC1)C[C@]1(C[C@H]2C(=O)N[C@]4(C(=O)NS(=O)(=O)C5(C)CC5)C[C@H]4/C=C\CCCCC[C@H](NC(=O)OC(C)(C)C)C(=O)N2C1)O3 [Example 53, tert-Butyl ((1′R,2S,6S,13aS,14aR,16aS,Z)-9′-methoxy-14a-(((1-methylcyclopropyl)sulfonyl)carbamoyl)-1′-((((1-methylcyclopropyl)sulfonyl)carbamoyl)oxy)-5,16-dioxo-5′-(trifluoromethyl)-1′,2′,3,5,6,7,8,9,10,11,13a,14,14a,15,16,16a-hexadecahydro-1H-spiro[cyclopropa[e]pyrrolo[1,2-a][1,4]diazacyclopentadecine-2,3′-pyrano[2,3-c]quinolin]-6-yl)carbamate]
- EC50: 15.9 nM
